Assay results taken from patent US11312727B1, “Macrocyclic flu endonuclease inhibitors” (Janssen BioPharma, Inc., priority 2018, dated 2022).
Where two headings read alike, the source gives them in different places.

Experiments:
[1] = system: Influenza strain A549 A/WSN/33 (H1N1); test: microbe, parasite or virus in culture; assay type: cell-based; conditions: Influenza A virus, A549, 20 h, A549 cells, influenza A/WSN/33 (H1N1), 20 hours incubation; read-out: A549_A(H1N1) EC50
in vitro = conditions: human, CC50, uninfected A549 cells, CellTiter-Glo

Row | SMILES | EC50 [1] | CC50 (in vitro) | other results
1 | CCC1C=CCOc2ccccc2C(c2ccccc2)N2CN1C(=O)c1c(OCc3ccccc3)c(=O)ccn12 (centres unmarked) | – | – | ring closure, yield of all isomers (from C=CCOc1ccccc1C(c1ccccc1)N1CN(C(C=C)CC)C(=O)c2c(OCc3ccccc3)c(=O)ccn21, rcm bond, Hoveyda-Grubbs catalyst 2nd generation, DCE, […], 80.0 °C, 2.0 h): 62.5%
2 | O=C1c2c(OCc3ccccc3)c(=O)ccn2N2CN1CC=CCOc1c(F)cccc1C2c1cccc(F)c1 (centres unmarked) | – | – | ring closure, yield of all isomers (from C=CCOc1c(F)cccc1C(c1cccc(F)c1)N1CN(CC=C)C(=O)c2c(OCc3ccccc3)c(=O)ccn21, rcm bond, Hoveyda-Grubbs second generation catalyst, DCE, 19.6 mM, 80.0 °C, 2.0 h): 13.6%
3 | O=C1c2c(OCc3ccccc3)c(=O)ccn2N2CN1CC=CCOc1ccccc1C2c1ccccc1 (centres unmarked) | – | – | ring closure, yield of all isomers (from C=CCOc1ccccc1C(c1ccccc1)N1CN(CC=C)C(=O)c2c(OCc3ccccc3)c(=O)ccn21, rcm bond, Hoveyda-Grubbs 2nd generation, DCE, […], 80.0 °C, 2.0 h): 21.4%
4 | O=C1c2c(OCc3ccccc3)c(=O)ccn2N2CN1CCC=CCc1ccccc1C2c1ccccc1 (centres unmarked) | – | – | ring closure, yield of all isomers (from C=CCCN1CN(C(c2ccccc2)c2ccccc2CC=C)n2ccc(=O)c(OCc3ccccc3)c2C1=O, rcm bond, Hoveyda-Grubbs 2nd generation, DCE, 12.7 mM, 80.0 °C, 3.0 h): 69.2%
5 | O=C1c2c(OCc3ccccc3)c(=O)ccn2N2CN1C1(C=CCOc3c(ccc(F)c3F)C2c2ccccc2)CCC1 (centres unmarked) | – | – | ring closure, yield of all isomers (from C=CCOc1c(C(c2ccccc2)N2CN(C3(C=C)CCC3)C(=O)c3c(OCc4ccccc4)c(=O)ccn32)ccc(F)c1F, rcm bond, Hoveyda-Grubbs II, dichloroethane, 12.05 mM, 100.0 °C, 6.0 h): 40.7%
6 | O=C1c2c(OCc3ccccc3)c(=O)ccn2N2CN1CC=CCOc1ccccc1C2c1ccccn1 (centres unmarked) | – | – | ring closure, yield of all isomers (from C=CCOc1ccccc1C(c1ccccn1)N1CN(CC=C)C(=O)c2c(OCc3ccccc3)c(=O)ccn21, rcm bond, Hoveyda-Grubbs catalyst 2nd generation, DCE, 14.6 mM, 80.0 °C, 2.0 h): 9.7%
7 | O=C1c2c(OCc3ccccc3)c(=O)ccn2N2CN1CCC=CCOc1cccc3c1C2c1ccccc1SC3 (centres unmarked) | – | – | ring closure, yield of all isomers (from C=CCCN1CN(C2c3ccccc3SCc3cccc(OCC=C)c32)n2ccc(=O)c(OCc3ccccc3)c2C1=O, rcm bond, Hoveyda-Grubbs catalyst 2nd generation, DCE, 13.86 mM, 80.0 °C, […]): 19.8%
8 | O=C1CCN2CN(C(c3ccccc3)c3ccccc3CN1)n1ccc(=O)c(OCc3ccccc3)c1C2=O (centres unmarked) | – | – | ring closure, yield of all isomers (from NCc1ccccc1C(c1ccccc1)N1CN(CCC(=O)O)C(=O)c2c(OCc3ccccc3)c(=O)ccn21, amide bond, HATU, DMF, […], 80.0 °C): 51.7%
9 | O=C1c2c(OCc3ccccc3)c(=O)ccn2N2CN1CC=CCCOc1cccc(c1)C2c1ccccc1 (centres unmarked) | – | – | ring closure, yield of all isomers (from C=CCCOc1cccc(C(c2ccccc2)N2CN(CC=C)C(=O)c3c(OCc4ccccc4)c(=O)ccn32)c1, rcm bond, Hoveyda-Grubbs 2nd generation, DCE, 12.1 mM, 90.0 °C, […]): 8.9%
10 | O=C1c2c(OCc3ccccc3)c(=O)ccn2N2CN1CC=CCOc1cccc3c1C2c1ccccc1SC3 (centres unmarked) | – | – | ring closure, yield of all isomers (from C=CCOc1cccc2c1C(N1CN(CC=C)C(=O)c3c(OCc4ccccc4)c(=O)ccn31)c1ccccc1SC2, rcm bond, Hoveyda-Grubbs catalyst 2nd generation, DCE, 16.04 mM, 80.0 °C, […]): 15%
11 | CC[C@H]1/C=C/COc2c(ccc(Cl)c2Cl)[C@@H](c2ccccc2)N2CN1C(=O)c1c(O)c(=O)ccn12 (single isomer, unassigned) [Compound 121AB, (9*S,18*R,*E)-3,4-dichloro-9-ethyl-12-hydroxy-18-phenyl-6,9-dihydro-18H-10,17-methanobenzo[b]pyrido[1,2-f][1]oxa[5,6,9]triazacyclotridecine-11,13-dione] | > 100 nM | > 200 nM | –
12 | CC[C@@H]1/C=C/COc2c(ccc(F)c2F)[C@H](c2ccccc2)N2CN1C(=O)c1c(O)c(=O)ccn12 [Compound 101BB, (9R,18S,E)-9-ethyl-3,4-difluoro-12-hydroxy-18-phenyl-6,9-dihydro-18H-10,17-methanobenzo[b]pyrido[1,2-f][1]oxa[5,6,9]triazacyclotridecine-11,13-dione] | 5030 nM | 29900 nM | –
13 | O=C1c2c(O)c(=O)ccn2N2CN1C/C=C\COc1cccc3c1[C@H]2c1ccccc1OC3 (single isomer, unassigned) [Compound 53A, (21a*R,Z)-16-hydroxy-6,10,13,21a-tetrahydro-7,8-(epiprop[1]en[1]yl[3]ylidene)-14,21-methanobenzo[6,7]oxepino[4,5-c]pyrido[1,2-f][1]oxa[5,6,9]triazacyclotridecine-15,17-dione] | 34 nM | > 2000 nM | –
14 | C[C@H]1/C=C/COc2cccc3c2[C@@H](c2ccccc2SC3)N2CN1C(=O)c1c(O)c(=O)ccn12 (single isomer, unassigned) [Compound 138D, (9*S,17a*S,E)-12-hydroxy-9-methyl-2,6,9,17a-tetrahydro-3,4-(epiprop[1]en[1]yl[3]ylidene)-10,17-methanobenzo[6,7]thiepino[4,5-c]pyrido[1,2-f][1]oxa[5,6,9]triazacyclotridecine-11,13-dione] | 0.9 nM | > 200 nM | –
15 | O=C1c2c(O)c(=O)ccn2N2CN1CCC/C=C\c1ccccc1[C@@H]2c1ccccc1 (single isomer, unassigned) [Compound 54B, (16*S,*Z)-4-hydroxy-16-phenyl-7,8,9,16-tetrahydro-6,17-methanobenzo[k]pyrido[1,2-b][1,2,5]triazacyclotridecine-3,5-dione] | 33 nM | > 2000 nM | –
16 | O=C1c2c(O)c(=O)ccn2N2CN1C/C=C/COc1c(F)cccc1[C@@H]2c1ccccc1C1CC1 [Compound 123B, (18S,E)-18-(2-cyclopropylphenyl)-4-fluoro-12-hydroxy-6,9-dihydro-18H-10,17-methanobenzo[b]pyrido[1,2-f][1]oxa[5,6,9]triazacyclotridecine-11,13-dione] | > 100 nM | > 200 nM | –
17 | O=C1c2c(O)c(=O)ccn2N2CN1CC/C=C\COc1cc(F)c(F)c3c1[C@H]2c1ccccc1SC3 (single isomer, unassigned) [Compound 88B, (23b*S, Z)-16,17-difluoro-6-hydroxy-10,13,18,23b-tetrahydro-9H-1,8-methano[1]benzothiepino[5,4,3-1m]pyrido[2,1-i][1,7,10,11]benzoxatriazacyclotetradecine-5,7-dione] | 1 nM | > 200 nM | –
18 | O=C1c2c(O)c(=O)ccn2N2CN1CC/C=C\c1ccccc1C2c1ccccc1 (centres unmarked) [Compound 54, (*Z)-4-hydroxy-15-phenyl-8,15-dihydro-7H-6,16-methanobenzo[j]pyrido[1,2-b][1,2,5]triazacyclododecine-3,5-dione] | 117 nM | > 20000 nM | –
19 | CC[C@H]1/C=C/COc2c(ccc(Cl)c2Cl)[C@H](c2ccccc2)N2CN1C(=O)c1c(O)c(=O)ccn12 (single isomer, unassigned) [Compound 121BB, (9*S,18*S,*E)-3,4-dichloro-9-ethyl-12-hydroxy-18-phenyl-6,9-dihydro-18H-10,17-methanobenzo[b]pyrido[1,2-f][1]oxa[5,6,9]triazacyclotridecine-11,13-dione] | 60 nM | > 200 nM | –
20 | O=C1c2c(O)c(=O)ccn2N2CN1C/C=C\COc1c(ccc(F)c1F)[C@H]2c1ccccc1 (single isomer, unassigned) [Compound 74A, (18*R,Z)-3,4-difluoro-12-hydroxy-18-phenyl-6,9-dihydro-18H-10,17-methanobenzo[b]pyrido[1,2-f][1]oxa[5,6,9]triazacyclotridecine-11,13-dione] | > 1000 nM | > 2000 nM | –
21 | O=C1c2c(O)c(=O)ccn2N2CN1C/C=C\COc1cccc3c1[C@@H]2c1ccccc1OC3 (single isomer, unassigned) [Compound 53B, (21a*S,Z)-16-hydroxy-6,10,13,21a-tetrahydro-7,8-(epiprop[1]en[1]yl[3]ylidene)-14,21-methanobenzo[6,7]oxepino[4,5-c]pyrido[1,2-f][1]oxa[5,6,9]triazacyclotridecine-15,17-dione] | > 1000 nM | > 2000 nM | –
22 | O=C1c2c(O)c(=O)ccn2N2CN1[C@H](C1CC1)/C=C/COc1c(ccc(F)c1F)[C@H]2c1ccccc1 (single isomer, unassigned) [Compound 152BB, (9*R,18*R,*E)-9-cyclopropyl-3,4-difluoro-12-hydroxy-18-phenyl-6,9-dihydro-18H-10,17-methanobenzo[b]pyrido[1,2-f][1]oxa[5,6,9]triazacyclotridecine-11,13-dione] | 1.8 nM | > 200 nM | –
23 | CC[C@@H]1/C=C/COc2cc(Cl)ccc2[C@@H](c2ccccc2)N2CN1C(=O)c1c(O)c(=O)ccn12 (single isomer, unassigned) [Compound 97AA] | 5.8 nM | > 1000 nM | –
24 | O=C1c2c(O)c(=O)ccn2N2CN1C/C=C\COc1cc(C(F)F)ccc1[C@@H]2c1ccccc1 (single isomer, unassigned) [Compound 94A, (18*S,Z)-3-(difluoromethyl)-12-hydroxy-18-phenyl-6,9-dihydro-18H-10,17-methanobenzo[b]pyrido[1,2-f][1]oxa[5,6,9]triazacyclotridecine-11,13-dione] | 25.7 nM | > 1000 nM | –
25 | O=C1c2c(O)c(=O)ccn2N2CN1C/C=C\COc1c(OC(F)(F)F)cccc1[C@H]2c1ccccc1 (single isomer, unassigned) [Compound 134A, (18*R,Z)-12-hydroxy-18-phenyl-4-(trifluoromethoxy)-6,9-dihydro-18H-10,17-methanobenzo[b]pyrido[1,2-f][1]oxa[5,6,9]triazacyclotridecine-11,13-dione] | 69.3 nM | > 200 nM | –
26 | O=C1c2c(O)c(=O)ccn2N2CN1C/C=C/CCc1ccccc1[C@H]2c1cccc(F)n1 (single isomer, unassigned) [Compound 78B, (16*S,E)-16-(6-fluoropyridin-2-yl)-4-hydroxy-7,10,11,16-tetrahydro-6,17-methanobenzo[k]pyrido[1,2-b][1,2,5]triazacyclotridecine-3,5-dione] | 6430 nM | 61600 nM | –
27 | C/C1=C/CN2CN([C@@H](c3ccccc3)c3ccccc3OC1)n1ccc(=O)c(O)c1C2=O (single isomer, unassigned) [Compound 44B, (18*S,*Z)-12-hydroxy-7-methyl-18-phenyl-6,9-dihydro-18H-10,17-methanobenzo[b]pyrido[1,2-f][1]oxa[5,6,9]triazacyclotridecine-11,13-dione] | > 10000 nM | > 20000 nM | –
